Read-outs that look alike come from different tables or passages of the source.
Experiments:
REH [1] = assay: Cell viability (CellTiter Glo), library of cancer drugs, individual or sample compression with randomized (alphabetical) pools, REH; format: cell-based
Procedure: (§1) Total cell viability was measured for each sample using an ATP-based luminescence assay (i.e., CellTiter Glo). Each cancer drug was then screened at multiple concentrations ranging from one nM to ten μM in order to generate a dose-response curve and calculate a DRS for each cancer cell line.
(§2) Each cancer drug was cultured with target cells individually. At the end of the screen, samples were either analyzed individually or compressed into pools for analysis. The library was compressed alphabetically into ten cohorts, each of which contained seven cancer drugs present in three out of the seven pools, as shown in Table VII. Said another way, the screening platform 210 generated a “7 pick 3” compressed library by assigning the cancer drugs among different pools. […] The library was also compressed into ten cohorts with pools designed based on information known about each cancer drug, as shown in Table VIII. After cell viability measurement and DRS calculation, the DRS of each cancer drug in the samples generated based on the pools were deconvoluted and compared to the DRS for each cancer drug measured individually.
(§3) In SUM-based deconvolution, an assumption of additivity is used to quantify the individual effects of each perturbation on each target. Additivity implies that each perturbation effect on each target is positively contributing to the overall effect measured for that pool. This is an accurate assumption for certain experiments, such as when targets or samples are compressed. When targets are pooled—or when samples containing different targets are pooled—the effect of each perturbation on each individual target is diluted. In other words, each perturbation has an isolated effect on a target in culture, and the sum total of the isolated effects are measured when pooled. Therefore, SUM-based deconvolution breaks down the sum total measured for a pool and assigns estimated fractional effects to each compressed perturbation or target in the pool. The screening platform 210 used SUM-based deconvolution for all target and sample compression experiments described above.

MOLT-4 [2] = assay: Cell viability (CellTiter Glo), library of cancer drugs, individual or sample compression with randomized (alphabetical) pools, MOLT-4; format: cell-based
Procedure: as §1, §2, §3

REH [3] = assay: Cell viability (CellTiter Glo), compressed perturbation pools with informed pool design, MAX-based deconvolution, REH;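 further: higher DRS means a larger drug effect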
Procedure: as §1, §2
(§4) In parallel to the exemplary sample compression screen covered in Table VII, perturbations were compressed into pools and then screened. The pools were designed using drug class as a feature with two compression rules (or simply “rules”). The first rule required that drugs from the same class be separated into different cohorts (i.e., mutually exclusive groups of pools). […] A benefit of compressing perturbations is the ability to measure additive, antagonistic, and synergistic effects between drugs in the same pool. However, these effects can negatively impact deconvolution of individual drug effects. Therefore, combinations of drugs for which evidence of clinical toxicity exists can be assigned to different pools in accordance with an informed pooling operation. As new preclinical or clinical evidence of toxic combinations becomes available, the rules implemented by the screening platform 210—and more specifically, its algorithm for compressing members of a library—can be updated accordingly.
(§5) In MAX-based deconvolution, an assumption of neutrality between the compressed perturbations is made. In other words, the perturbation with the largest effect is assumed to be masking the effects, if any, of the other perturbations in the pool. For SUM- and MAX-based deconvolution, qualitative deconvolution is first performed to rank the perturbations in each pool based on size of expected effect. Qualitative deconvolution, as described above, ranks the perturbations in a pool from largest effect size to smallest effect size. The ranking is based on the overlap of each perturbation's unique subset of pools with the highest and lowest measured pools. The perturbation with the largest effect is expected to be present in the pools with the highest measured signal or corresponding metric (e.g., DRS), while the perturbation with the smallest effect is expected to be present in the pools with the lowest measured signal or corresponding metric (e.g., DRS).
(§6) For MAX-based deconvolution, the highest ranked perturbation in the rank order is first assigned an effect size based on the pool with the lowest measured signal or corresponding metric (e.g., DRS) that it is present in. Said another way, the screening platform 210 can identify the highest ranked perturbation in the rank order and then assign an effect size based on the measured signal or corresponding metric (e.g., DRS) of the “weakest” pool in which the highest ranked perturbation is included. The screening platform 210 can repeat this step for the next highest ranked perturbation, and so on until the measurements for each pool have been assigned to one of the perturbations. The effects for the remaining perturbations can be assigned a value of zero, since it is assumed that their effect is masked by the perturbation with the largest effect in each pool.

MOLT-4 [4] = assay: Cell viability (CellTiter Glo), compressed perturbation pools with informed pool design, MAX-based deconvolution, MOLT-4;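 further: higher DRS means a larger drug effect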
Procedure: as §1, §2, §4, §5, §6

[5] = REH, None (measured individually)
[6] = REH, Samples, 7 Pick 3 randomized (alphabetical) sample pools
[7] = MOLT-4, None (measured individually)
[8] = MOLT-4, Samples, 7 Pick 3 randomized (alphabetical) sample pools
[9] = REH, None (measured individually), informed pool design table
[10] = REH, Samples, 7 Pick 3 informed perturbation pools
[11] = MOLT-4, None (measured individually), informed pool design table
[12] = MOLT-4, Samples, 7 Pick 3 informed perturbation pools

## Cc1cnc(Nc2ccc(OCCN3CCCC3)cc2)nc1Nc1cccc(S(=O)(=O)NC(C)(C)C)c1 [Fedratinib]
REH [1]; [5]
  DRS: 4.94
REH [1]; [6]
  DRS from deconvolution: 5.00
MOLT-4 [2]; [7]
  DRS: 4.84
MOLT-4 [2]; [8]
  DRS from deconvolution: 4.67
REH [3]; [9]
  DRS: 8.20
REH [3]; [10]
  DRS from MAX-based deconvolution: 9.03
MOLT-4 [4]; [11]
  DRS: 2.70
MOLT-4 [4]; [12]
  DRS from MAX-based deconvolution: 3.88

## N#CC[C@H](C1CCCC1)n1cc(-c2ncnc3[nH]ccc23)cn1 [Ruxolitinib]
REH [1]; [5]
  DRS: 0.00
REH [1]; [6]
  DRS from deconvolution: 0.00
MOLT-4 [2]; [7]
  DRS: 1.60
MOLT-4 [2]; [8]
  DRS from deconvolution: 1.74
REH [3]; [9]
  DRS: 0.60
REH [3]; [10]
  DRS from MAX-based deconvolution: 0.00
MOLT-4 [4]; [11]
  DRS: 0.00
MOLT-4 [4]; [12]
  DRS from MAX-based deconvolution: 0.00

## CC(C)(C#N)c1cc(Cn2cncn2)cc(C(C)(C)C#N)c1 [Anastrozole]
REH [1]; [5]
  DRS: 0.01
REH [1]; [6]
  DRS from deconvolution: 0.21
MOLT-4 [2]; [7]
  DRS: 0.01
MOLT-4 [2]; [8]
  DRS from deconvolution: 0.00
REH [3]; [9]
  DRS: 0.06
REH [3]; [10]
  DRS from MAX-based deconvolution: 0.00
MOLT-4 [4]; [11]
  DRS: 0.56
MOLT-4 [4]; [12]
  DRS from MAX-based deconvolution: 0.79

## COc1cc2c(Nc3ccc(Br)cc3F)ncnc2cc1OCC1CCN(C)CC1 [Vandetanib]
REH [1]; [5]
  DRS: 3.01
REH [1]; [6]
  DRS from deconvolution: 2.79
MOLT-4 [2]; [7]
  DRS: 3.01
MOLT-4 [2]; [8]
  DRS from deconvolution: 3.12
REH [3]; [9]
  DRS: 7.39
REH [3]; [10]
  DRS from MAX-based deconvolution: 9.02
MOLT-4 [4]; [11]
  DRS: 2.19
MOLT-4 [4]; [12]
  DRS from MAX-based deconvolution: 2.51

## CC(=O)Nc1cccc(-n2c(=O)n(C3CC3)c(=O)c3c(Nc4ccc(I)cc4F)n(C)c(=O)c(C)c32)c1 [Trametinib]
REH [1]; [5]
  DRS: 0.00
REH [1]; [6]
  DRS from deconvolution: 0.00
MOLT-4 [2]; [7]
  DRS: 0.00
MOLT-4 [2]; [8]
  DRS from deconvolution: 0.00
REH [3]; [9]
  DRS: 21.81
REH [3]; [10]
  DRS from MAX-based deconvolution: 23.72
MOLT-4 [4]; [11]
  DRS: 24.71
MOLT-4 [4]; [12]
  DRS from MAX-based deconvolution: 24.91

## Cc1ccc(C(=O)Nc2ccc(CN3CCN(C)CC3)c(C(F)(F)F)c2)cc1C#Cc1cnc2cccnn12 [Ponatinib]
REH [1]; [5]
  DRS: 4.42
REH [1]; [6]
  DRS from deconvolution: 3.86
MOLT-4 [2]; [7]
  DRS: 6.12
MOLT-4 [2]; [8]
  DRS from deconvolution: 6.51
REH [3]; [9]
  DRS: 0.84
REH [3]; [10]
  DRS from MAX-based deconvolution: 0.00
MOLT-4 [4]; [11]
  DRS: 0.24
MOLT-4 [4]; [12]
  DRS from MAX-based deconvolution: 0.00

## O=C(Nc1cnn2ccc(N3CCC[C@@H]3c3cc(F)ccc3F)nc12)N1CC[C@H](O)C1 [Larotrectinib]
REH [1]; [5]
  DRS: 0.00
REH [1]; [6]
  DRS from deconvolution: 0.00
MOLT-4 [2]; [7]
  DRS: 0.00
MOLT-4 [2]; [8]
  DRS from deconvolution: 0.00
REH [3]; [9]
  DRS: 0.74
REH [3]; [10]
  DRS from MAX-based deconvolution: 0.00
MOLT-4 [4]; [11]
  DRS: 0.74
MOLT-4 [4]; [12]
  DRS from MAX-based deconvolution: 0.00

## CN1CCN(c2ccc(C(=O)Nc3n[nH]c4ccc(Cc5cc(F)cc(F)c5)cc34)c(NC3CCOCC3)c2)CC1 [Entrectinib]
REH [1]; [5]
  DRS: 0.00
REH [1]; [6]
  DRS from deconvolution: 0.00
MOLT-4 [2]; [7]
  DRS: 0.00
MOLT-4 [2]; [8]
  DRS from deconvolution: 0.00
REH [3]; [9]
  DRS: 16.20
REH [3]; [10]
  DRS from MAX-based deconvolution: 18.94
MOLT-4 [4]; [11]
  DRS: 18.70
MOLT-4 [4]; [12]
  DRS from MAX-based deconvolution: 21.41

## CNC(=O)c1ccc(-c2cnc3ncc(Cc4ccc5ncccc5c4)n3n2)cc1F [Capmatinib]
REH [1]; [5]
  DRS: 0.10
REH [1]; [6]
  DRS from deconvolution: 1.13
MOLT-4 [2]; [7]
  DRS: 0.10
MOLT-4 [2]; [8]
  DRS from deconvolution: 7.24
REH [3]; [9]
  DRS: 0.00
REH [3]; [10]
  DRS from MAX-based deconvolution: 0.00
MOLT-4 [4]; [11]
  DRS: 0.40
MOLT-4 [4]; [12]
  DRS from MAX-based deconvolution: 0.00

## CC(C)(O)CNc1nc(Nc2ccnc(C(F)(F)F)c2)nc(-c2cccc(C(F)(F)F)n2)n1 [Enasidenib]
REH [1]
  DRS: 0.00
  DRS from deconvolution: 0.00
MOLT-4 [2]
  DRS: 0.00
  DRS from deconvolution: 0.00
REH [3]
  DRS: 0.00
  DRS from MAX-based deconvolution: 0.00
MOLT-4 [4]
  DRS: 0.00
  DRS from MAX-based deconvolution: 0.00

## CO[C@H]1C(=O)[C@]2(C)[C@@H](OC)C[C@H]3OC[C@@]3(OC(C)=O)[C@H]2[C@H](OC(=O)c2ccccc2)[C@]2(O)C[C@H](OC(=O)[C@H](O)[C@@H](NC(=O)OC(C)(C)C)c3ccccc3)C(C)=C1C2(C)C [Cabazitaxel]
REH [1]; [5]
  DRS: 29.39
REH [1]; [6]
  DRS from deconvolution: 29.52
MOLT-4 [2]; [7]
  DRS: 29.89
MOLT-4 [2]; [8]
  DRS from deconvolution: 30.06
REH [3]; [9]
  DRS: 0.01
REH [3]; [10]
  DRS from MAX-based deconvolution: 0.00
MOLT-4 [4]; [11]
  DRS: 0.01
MOLT-4 [4]; [12]
  DRS from MAX-based deconvolution: 0.00

## N#Cc1ccc(C(c2ccc(C#N)cc2)n2cncn2)cc1 [Letrozole]
REH [1]; [5]
  DRS: 3.93
REH [1]; [6]
  DRS from deconvolution: 4.02
MOLT-4 [2]; [7]
  DRS: 3.50
MOLT-4 [2]; [8]
  DRS from deconvolution: 3.47
REH [3]; [9]
  DRS: 0.00
REH [3]; [10]
  DRS from MAX-based deconvolution: 0.00
MOLT-4 [4]; [11]
  DRS: 0.00
MOLT-4 [4]; [12]
  DRS from MAX-based deconvolution: 0.00

## C[C@]12CC[C@@H]3c4ccc(O)cc4C[C@@H](CCCCCCCCC[S+]([O-])CCCC(F)(F)C(F)(F)F)[C@H]3[C@@H]1CC[C@@H]2O (stereo partly shown) [Fulvestrant]
REH [1]; [5]
  DRS: 0.21
REH [1]; [6]
  DRS from deconvolution: 0.00
MOLT-4 [2]; [7]
  DRS: 0.01
MOLT-4 [2]; [8]
  DRS from deconvolution: 0.00
REH [3]; [9]
  DRS: 0.00
REH [3]; [10]
  DRS from MAX-based deconvolution: 0.00
MOLT-4 [4]; [11]
  DRS: 0.00
MOLT-4 [4]; [12]
  DRS from MAX-based deconvolution: 0.00

## C[C@]12CC[C@H](O)CC1=CC[C@@H]1[C@@H]2CC[C@]2(C)C(c3cccnc3)=CC[C@@H]12 [Abiraterone]
REH [1]; [5]
  DRS: 0.27
REH [1]; [6]
  DRS from deconvolution: 0.29
MOLT-4 [2]; [7]
  DRS: 0.27
MOLT-4 [2]; [8]
  DRS from deconvolution: 0.30
REH [3]; [9]
  DRS: 0.20
REH [3]; [10]
  DRS from MAX-based deconvolution: 0.00
MOLT-4 [4]; [11]
  DRS: 0.00
MOLT-4 [4]; [12]
  DRS from MAX-based deconvolution: 0.00
